How the values were obtained:
[1] = Effect of antioxidants on sincalide formulation stability (HPLC); details: for % Sincalide / % Total Sincalide-Related Impurities: antioxidant 10 μg/mL; for effect of antioxidant on sincalide stability (in words): antioxidant 10 μg/mL in reconstituted sincalide formulation, over 15 hours
Description: An experiment was performed to evaluate the addition of antioxidants as stabilizing agents to prevent sincalide oxidation in formulations of sincalide (formulations for Example 4 contained 85 mg/mL mannitol, 0.005 mg/mL TWEEN® 20, 2.75 mg/mL KH2PO4, 1.0 mg/mL DTPA, 2.0 mg/mL methionine, 7.5 mg/mL lysine, 15 mg/mL arginine, 0.0025 mg/mL sincalide (Bulk formulation), except placebos which contained no sincalide.) The formation of sincalide methionine (Met 3 or Met 6) monosulfoxides, desulfated sincalide and unknown degradants was investigated. The effectiveness of sodium metabisulfite, ascorbic acid, cysteine, glutathione, sodium sulfate, benzalkonium chloride, and benzethonium chloride in inhibiting the degradation of sincalide in terms of their effect on sincalide recovery and sincalide-related impurities, was evaluated by HPLC.
The effect of various antioxidants on the stabilization of sincalide was evaluated on open and sealed sincalide formulations over 15 hours. The antioxidants were separately added at a concentration of 10 μg/mL to water-reconstituted lyophilized sincalide formulations containing all formulation ingredients except antioxidant. Spiked and unspiked solutions were pooled, subdivided, and either exposed to or protected from air over 15 hours. The sincalide and total sincalide-related impurities were monitored by reversed-phase HPLC with gradient elution and UV detection at 215 nm to compare the effectiveness of the antioxidants.
To optimize the level of sodium metabisulfite in the formulation, lyophilized sincalide formulations were prepared containing four levels of sodium metabisulfite (0, 10, 30, and 60 μg/vial), as summarized in Table 13. Samples at each concentration were maintained under unstressed and stressed (65 ° C., 64 hours) storage conditions, and were subsequently assayed by HPLC. The “% sincalide” was determined, and the “% (Met 6) monosulfoxide” (tR≈19.7 min.) was monitored as an indication of sincalide oxidation.
Another experiment was conducted under longer-term accelerated storage conditions utilizing a sincalide formulation with the optimized concentration (40 μg/vial) of sodium metabisulfite to confirm the protective effect on the degradation of sincalide. Sincalide lyophilized formulations with and without the antioxidant from the same batch were heat-stressed at 40° C. and 60° C. for 6 weeks. Also, formulations without sincalide from the same batch were heat-stressed at 40° C. for 8 months.

[2] = Effect of amino acids on sincalide recovery and related impurities; type: physicochemical; details: for improvement in sincalide recovery vs control without lysine: lyophilized formulations
Description: Experiments were conducted to evaluate several amino acids as potential stabilizers of sincalide, including the non-polar (hydrophobic) methionine residue, aspartic acid and glutamic acid, the polar glycine and cysteine residues, and the basic lysine and arginine amino acids. […]
For comparison to the non-polar amino acid methionine as a potential processing stabilizer, polar amino acids such as glycine and cysteine were also evaluated. Formulations containing these amino acids were exposed to air in open vials and compared to product in closed vials. […] Table 23 presents the sincalide recoveries for experimental formulations containing variable concentrations of methionine, cysteine or glycine. […]

[3] = Effect of surfactants on sincalide recovery (RP-HPLC); type: physicochemical; details: for sincalide recoveries: formulations containing trace levels (2.5-7.5 μg/mL) of the surfactant
From the text: During the preliminary developmental studies of a new formulation that consisted of bulking agent/tonicity adjuster, buffer, salt, chelator, and sincalide, it was observed by HPLC analysis that the recovery of the active pharmaceutical ingredient, sincalide, in the bulk solution was sensitive to standing open to air. […] Although to some extent, this sincalide decrease can be accounted for by an increase in the presence of sincalide mono- and disulfoxide degradants, these represent only a very minor percentage of the decreases noted. Thus the decrease in recovery is thought to be attributed to either adsorption/denaturing or air/liquid interface effects. To minimize sincalide degradation associated with surface adsorption, surfactants are added as formulation excipients in bulk and lyophilized formulations of sincalide.
Sincalide formulations consisting of a bulking agent/tonicity adjuster (D-mannitol), buffer (mono- and dibasic potassium phosphate), salt (sodium/potassium chloride) for tonicity, chelator (pentetic acid), and active ingredient (sincalide) were prepared using varying concentrations of the nonionic surfactant, polysorbate 80 (TWEEN® 80). Bulk solution and reconstituted lyophilized samples were either stoppered immediately or left unstoppered for 17 hours, and were assayed for sincalide recovery by reversed-phase gradient elution HPLC at 215 nm. […]
An additional experiment was performed to confirm the effect of the concentration of TWEEN® 20 in terms of sincalide recovery in both air exposed and sealed bulk formulation. Sincalide recovery, determined for bulk formulation (75.0 mg/mL D-mannitol, 6.0 mg/mL KCl, 3.25 mg/mL KH2PO4, 1.0 mg/mL DTPA, 0.0025 mg/mL sincalide) containing varying trace levels of TWEEN® 20 stored in open or closed vials using reversed-phase gradient elution HPLC, is shown in Table 10. […]

[4] = Table 23, bulk formulation, amino acid 2.0 mg/mL Bulk
[5] = Table 23, bulk formulation, amino acid 2.5 mg/mL Bulk
[6] = bulk formulation, L-Methionine 0.00 mg/mL Bulk
[7] = bulk formulation, L-Methionine 0.025 mg/mL Bulk
[8] = bulk formulation, L-Methionine 0.50 mg/mL Bulk
[9] = bulk formulation, L-Methionine 2.0 mg/mL Bulk

% Sincalide ([1]; Open, 1 h) [%]	% Total Sincalide-Related Impurities ([1]; Open, 1 h) [%]	% Sincalide ([1]; Open, 8 h) [%]	% Total Sincalide-Related Impurities ([1]; Open, 8 h) [%]	% Sincalide ([1]; Open, 15 h) [%]	% Total Sincalide-Related Impurities ([1]; Open, 15 h) [%]	% Sincalide ([1]; Sealed, 0 h) [%]	% Total Sincalide-Related Impurities ([1]; Sealed, 0 h) [%]	% Sincalide ([1]; Sealed, 7 h) [%]	% Total Sincalide-Related Impurities ([1]; Sealed, 7 h) [%]	% Sincalide ([1]; Sealed, 14 h) [%]	% Total Sincalide-Related Impurities ([1]; Sealed, 14 h) [%]	Compound	also measured
98.1	1.94	98.2	1.85	97.9	2.13	98.1	1.90	98.3	1.74	98.2	1.82	N[C@@H](CCC(=O)N[C@@H](CS)C(=O)NCC(=O)O)C(=O)O [Glutathione]	
												CSCC[C@H](N)C(=O)O [L-Methionine]	Related impurities (%), Closed [2, 4]: 0.7%; Related impurities (%), Open [2, 4]: 6.4%; Related impurities (%), Closed [2, 5]: 0.7%; Related impurities (%), Open [2, 5]: 10.5%; Related impurities (%), Closed [2, 6]: 1.3%; Related impurities (%), Open [2, 6]: 52.7%; Related impurities (%), Closed [2, 7]: 1.0%; Related impurities (%), Open [2, 7]: 35.9%; Related impurities (%), Closed [2, 8]: 0.8%; Related impurities (%), Open [2, 8]: 19.3%; Related impurities (%), Closed [2, 9]: 0.7%; Related impurities (%), Open [2, 9]: 15.0%
98.2	1.76	98.3	1.69	98.2	1.79	98.3	1.67	98.3	1.66	98.3	1.73	O=S([O-])S(=O)(=O)[O-].[Na+].[Na+] [Sodium Metabisulfite]	
												polyoxyethylene sorbitan monolaurate [TWEEN ® 20]	foaming in the reconstituted product upon vigorous stirring ([3]; 2-mL filled vials, TWEEN 20 concentration of 5 μg/mL): slight foaming; sincalide recoveries [3]: 98-102%
82.7	17.3	88.4	11.6	82.9	17.1	97.8	2.21	97.7	2.34	97.4	2.58	Benzalkonium Chloride	
98.0	2.00	98.0	2.01	97.8	2.16	98.1	1.95	98.0	2.05	97.8	2.25	O=C1O[C@H]([C@@H](O)CO)C(O)=C1O [Ascorbic Acid]	
												polysorbate 80 [TWEEN ® 80]	sincalide recoveries [3]: 95-98%
												NCC(=O)O [L-Glycine]	Related impurities (%), Closed [2, 4]: 1.1%; Related impurities (%), Open [2, 4]: 51.1%; Related impurities (%), Closed [2, 5]: 1.6%; Related impurities (%), Open [2, 5]: 44.9%
												N[C@@H](CS)C(=O)O [L-Cysteine]	Related impurities (%), Closed [2, 4]: 1.0%; Related impurities (%), Open [2, 4]: 31.0%
97.8	2.20	97.7	2.32	98.0	2.05	98.2	1.85	98.1	1.87	98.1	1.91	N[C@@H](CS)C(=O)O [Cysteine]	
												NCCCCC(N)C(=O)O (racemic) [DL-Lysine]	improvement in sincalide recovery vs control without lysine ([2]; 3 weeks storage at 40° C.): 50%; improvement in sincalide recovery vs control without lysine ([2]; 5 weeks storage at 40° C.): 75%

Compound	% Sincalide ([1]; Open, 1 h) [%]	% Total Sincalide-Related Impurities ([1]; Open, 1 h) [%]	% Sincalide ([1]; Open, 8 h) [%]	% Total Sincalide-Related Impurities ([1]; Open, 8 h) [%]	% Sincalide ([1]; Open, 15 h) [%]	% Total Sincalide-Related Impurities ([1]; Open, 15 h) [%]	% Sincalide ([1]; Sealed, 0 h) [%]	% Total Sincalide-Related Impurities ([1]; Sealed, 0 h) [%]	% Sincalide ([1]; Sealed, 7 h) [%]	% Total Sincalide-Related Impurities ([1]; Sealed, 7 h) [%]	% Sincalide ([1]; Sealed, 14 h) [%]	% Total Sincalide-Related Impurities ([1]; Sealed, 14 h) [%]	also measured
CC(C)(C)CC(C)(C)c1ccc(OCCOCC[N+](C)(C)Cc2ccccc2)cc1 [Benzethonium Chloride]	92.1	7.93	88.0	12.0	92.6	7.36	97.9	2.13	98.0	1.98	98.0	1.96	effect of antioxidant on sincalide stability (in words) [1]: significant destabilizing effect
O=S(=O)([O-])[O-].[Na+].[Na+] [Sodium Sulfate]	98.3	1.70	98.2	1.78	98.1	1.92	98.2	1.76	98.1	1.90	98.2	1.81	effect of antioxidant on sincalide stability (in words) [1]: essentially equivalent to the control formulation
